Data reported in US8962810B2, “Macrocyclic heterocyclic compound for inhibiting hepatitis C virus and preparation and use thereof” (AB Pharma Ltd., priority 2011, dated 2015).

biological target: T1, HCV Protease (HCV NS3-4A) (Hepatitis C virus genotype 1a, UniProt P27958); assay: HCV Protease (HCV NS3-4A) anti-activity assay, fluorescence quenching (FRET); type: biochemical
T1 construct: HCV Protease: HCV NS3-4A, self-prepared; made in house
Procedure: Method of HCV Protease (HCV NS3-4A) Anti-Activity Assay:
HCV Protease (HCV NS3/4A) anti-activity was measured by an inter fluorescence quenching system. EDANS group and DABCYL group were bonded on each side of a peptide. When protein cleavage started, fluorescence quenching of EDANS by DABCYL was detected. We used a high throughput screening model for HCV NS3/4A protease inhibitors, the tested drugs were prepared with 5 different concentrations, positive control and negative control were set in the same time. In the optimized reaction system, fluorescence were determined at ex=355, em=520 by a Polarstar fluorescence detector. Calculate the inhibition rate of each concentration; calculate the half maximal inhibitory concentration (IC50) with the method of Reed-Muench.
Materials: HCV Protease: HCV NS3-4A, self-prepared, stored at −70. HCV Protease substrate (FRET-S): Ac-Asp-Glu-Asp(EDANS)-Glu-Glu-Abu-ψ-[COO]-Ala-Ser-Lys-(DABCYL)-NH2, supplied by AnaSpec USA, prepared of 100 μM by DMSO, distributed and stored at −20 without light. Buffer solution: 30 mM NaCl, 5 mM CaCl2, 10 mM DTT, 50 mM Tris (pH7.8).
Instrument: fluorescence detector Polarstar from Germany Company BMG
Preparation and operation: preparation of 10 mg/mL by DMSO, dilute of 10000, 2000, 400, 80, 16 ng/mL as tested concentrations by buffer solutions, adding 20 μL into each well, the total reaction system is 200 μL, to make the final concentrations of 1000, 200, 40, 8, 1.6 ng/mL. Add 140 μL buffer solution, 20 μL drug solution, 20 μL HCV protease, and 20 μL FRET-S substrate with final concentration of 0.25 μM into 96-well fluorescence microtiterplate, the reaction started at 37, set control wells of protease-substrate reaction and of isolate substrate and isolate protease, fluorescence signals were detected by fluorescence detector (ex=355,em=520). Calculate the inhibition rates of samples for each concentration by comparison of fluorescence value of sample in each well and the fluorescence control value of enzyme, calculate the half maximal inhibitory concentration (IC50) of samples to HCV protease with the method of Reed-Muench.
THF and Et2O were distilled from sodium metal and benzophenone. DCM, pentane and hexane were distilled form calcium hydride. Special raw materials and intermediates in the invention were supplied by Zannan SciTech Co. for ordered processing, Ltd. in Shanghai, others reagents were purchased from Shanghai reagent company, Aldrich, Acros etc. If intermediates or products of synthesis were not enough for the next step of reaction, the synthesis shall be repeated until it is sufficient. The HCV protease (HCV NS3-4A) inhibitory activity assays in the present invention were performed by relevant cooperation service units of China Institutes for Biological Science in Beijing.

T1 sequence (P27958 1658-1711): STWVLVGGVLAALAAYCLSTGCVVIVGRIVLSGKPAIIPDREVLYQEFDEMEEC
T1 sequence (P27958 1027-1657): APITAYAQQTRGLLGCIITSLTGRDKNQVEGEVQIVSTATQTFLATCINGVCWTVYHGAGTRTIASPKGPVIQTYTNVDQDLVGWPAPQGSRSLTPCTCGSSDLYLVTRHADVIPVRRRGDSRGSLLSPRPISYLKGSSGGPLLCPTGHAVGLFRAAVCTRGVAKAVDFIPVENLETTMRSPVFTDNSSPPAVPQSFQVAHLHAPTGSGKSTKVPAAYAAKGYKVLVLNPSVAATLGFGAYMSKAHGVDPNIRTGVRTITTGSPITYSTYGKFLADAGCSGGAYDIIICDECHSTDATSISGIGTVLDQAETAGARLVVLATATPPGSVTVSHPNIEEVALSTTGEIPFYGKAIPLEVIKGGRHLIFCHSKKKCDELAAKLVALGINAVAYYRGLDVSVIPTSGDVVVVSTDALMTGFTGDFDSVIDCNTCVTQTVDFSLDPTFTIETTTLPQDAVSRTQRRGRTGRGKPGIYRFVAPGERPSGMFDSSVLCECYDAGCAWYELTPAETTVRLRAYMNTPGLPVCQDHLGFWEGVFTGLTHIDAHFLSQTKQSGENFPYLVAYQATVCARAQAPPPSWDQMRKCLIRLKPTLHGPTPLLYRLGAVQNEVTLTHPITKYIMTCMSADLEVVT

Structure (SMILES) | IC50 [nM]
CCC1CC1(NC(=O)C1CC2CN1C(=O)C(C(C)(C)C)NC(=O)OCCC=CCOc1c(OC)ccc3c1CN(C3)C(=O)O2)C(=O)NS(=O)(=O)C1CC1 (stereo not shown) [Compound 15m] | 5.1 to 50
CC[C@H]1C[C@@]1(NC(=O)C1C[C@@H]2CN1C(=O)[C@H](C(C)(C)C)NC(=O)OCC(C)(C)C/C=C/CSc1cccc3c1CN(C3)C(=O)O2)C(=O)NS(=O)(=O)C1CC1 (stereo partly shown) [Compound 15cb] | 0.1 to 5
C=C[C@H]1C[C@@]1(NC(=O)C1C[C@@H]2CN1C(=O)[C@H](C(C)(C)C)NC(=O)OCCCC/C=C\c1c3c(cc4c1OCO4)CN(C3)C(=O)O2)C(=O)NS(=O)(=O)C1CC1 (stereo partly shown) [Compound 15bu] | 0.1 to 5
CC[C@H]1C[C@@]1(NC(=O)C1C[C@@H]2CN1C(=O)[C@H](C(C)(C)C)NC(=O)OCCC/C=C/CCOc1cccc3c1CN(C3)C(=O)O2)C(=O)NS(=O)(=O)C1CC1 (stereo partly shown) [Compound 15ap] | 0.1 to 5
CC[C@H]1C[C@@]1(NC(=O)C1C[C@@H]2CN1C(=O)[C@H](C(C)(C)C)NC(=O)OCCCCCCc1c3c(cc4c1OCO4)CN(C3)C(=O)O2)C(=O)NS(=O)(=O)C1CC1 (stereo partly shown) [Compound 15bx] | 0.1 to 5
CC[C@H]1C[C@@]1(NC(=O)C1C[C@@H]2CN1C(=O)[C@H](C(C)(C)C)NC(=O)OCC(C)(C)CCCCOC(=O)c1ccc3c(c1)CN(C3)C(=O)O2)C(=O)NS(=O)(=O)C1CC1 (stereo partly shown) [Compound 15br] | 51 to 300
CC[C@H]1C[C@@]1(NC(=O)C1C[C@@H]2CN1C(=O)[C@H](C(C)(C)C)NC(=O)OCCCCCCCCCOc1cccc3c1CN(C3)C(=O)O2)C(=O)NS(=O)(=O)C1CC1 (stereo partly shown) [Compound 15z] | 5.1 to 50
C=CC1CC1(NC(=O)C1CC2CN1C(=O)C(C(C)(C)C)NC(=O)OCCCC=CCOc1ccc3c(c1)CN(C3)C(=O)O2)C(=O)NS(=O)(=O)C1CC1 (stereo not shown) [Compound 15bj] | 0.1 to 5
C=C[C@H]1C[C@@]1(NC(=O)C1C[C@@H]2CN1C(=O)[C@H](C(C)(C)C)NC(=O)OCC(C)(C)C/C=C/COc1cccc3c1CN(C3)C(=O)O2)C(=O)NS(=O)(=O)C1CC1 (stereo partly shown) [Compound 15aq] | 0.1 to 5
C=C[C@H]1C[C@@]1(NC(=O)C1C[C@@H]2CN1C(=O)[C@H](C(C)(C)C)NC(=O)OCC1(CCCCCOc3cccc4c3CN(C4)C(=O)O2)CC1)C(=O)NS(=O)(=O)C1CC1 (stereo partly shown) [Compound 15d] | 0.1 to 5
CC[C@H]1C[C@@]1(NC(=O)C1C[C@@H]2CN1C(=O)[C@H](C(C)(C)C)NC(=O)OCC1(CCCCOc3cccc4c3CN(C4)C(=O)O2)CC1)C(=O)NS(=O)(=O)C1CC1 (stereo partly shown) [Compound 15e] | 0.1 to 5
C=C[C@H]1C[C@@]1(NC(=O)C1C[C@@H]2CN1C(=O)[C@H](C(C)(C)C)NC(=O)OCCC/C=C/COc1c(OC)ccc3c1CN(C3)C(=O)O2)C(=O)NS(=O)(=O)C1CC1 (stereo partly shown) [Compound 15k] | 0.1 to 5
C=C[C@H]1C[C@@]1(NC(=O)C1C[C@@H]2CN1C(=O)[C@H](C(C)(C)C)NC(=O)OCC(C)(C)CCCCOc1cccc3c1CN(C3)C(=O)O2)C(=O)NS(=O)(=O)C1CC1 (stereo partly shown) [Compound 15as] | 0.1 to 5
CC[C@H]1C[C@@]1(NC(=O)C1C[C@@H]2CN1C(=O)[C@H](C(C)(C)C)NC(=O)OCC1(CC/C=C/COc3cccc4c3CN(C4)C(=O)O2)CC1)C(=O)NS(=O)(=O)C1CC1 (stereo partly shown) [Compound 15b] | 0.1 to 5
CC[C@H]1C[C@@]1(NC(=O)C1C[C@@H]2CN1C(=O)[C@H](C(C)(C)C)NC(=O)OCC(C)(C)C/C=C/COc1c(OC)ccc3c1CN(C3)C(=O)O2)C(=O)NS(=O)(=O)C1CC1 (stereo partly shown) [Compound 15h] | 5.1 to 50
C=C[C@H]1C[C@@]1(NC(=O)C1C[C@@H]2CN1C(=O)[C@H](C(C)(C)C)NC(=O)OCCCC/C=C/COc1c(OC)ccc3c1CN(C3)C(=O)O2)C(=O)NS(=O)(=O)C1CC1 (stereo partly shown) [Compound 15j] | 0.1 to 5
C=C[C@H]1C[C@@]1(NC(=O)C1C[C@@H]2CN1C(=O)[C@H](C(C)(C)C)NC(=O)OCC1(CC/C=C/COc3cccc4c3CN(C4)C(=O)O2)CC1)C(=O)NS(=O)(=O)C1CC1 (stereo partly shown) [Compound 15c] | 0.1 to 5
CC[C@H]1C[C@@]1(NC(=O)C1C[C@@H]2CN1C(=O)[C@H](C(C)(C)C)NC(=O)OCC(C)(C)CCCCc1c3c(cc4c1OCO4)CN(C3)C(=O)O2)C(=O)NS(=O)(=O)C1CC1 (stereo partly shown) [Compound 15by] | 0.1 to 5
CC[C@H]1C[C@@]1(NC(=O)C1C[C@@H]2CN1C(=O)[C@H](C(C)(C)C)NC(=O)OCCCCCCOc1cccc3c1CN(C3)C(=O)O2)C(=O)NS(=O)(=O)C1CC1 (stereo partly shown) [Compound 15w] | 0.1 to 5

Structure (SMILES) | IC50 [nM]
CCC1CC1(NC(=O)C1CC2CN1C(=O)C(C(C)(C)C)NC(=O)OCC(C)(C)CCCCCNC(=O)c1cccc3c1CN(C3)C(=O)O2)C(=O)NS(=O)(=O)C1CC1 (stereo not shown) [Compound 15bd] | 51 to 300
CCC1CC1(NC(=O)C1CC2CN1C(=O)C(C(C)(C)C)NC(=O)OCC(C)(C)CCCCOc1cccc3c1CN(C3)C(=O)O2)C(=O)NS(=O)(=O)C1CC1 (stereo not shown) [Compound 15u] | 0.1 to 5
C=C[C@H]1C[C@@]1(NC(=O)C1C[C@@H]2CN1C(=O)[C@H](C(C)(C)C)NC(=O)OCC(C)(C)OC/C=C/COc1cccc3c1CN(C3)C(=O)O2)C(=O)NS(=O)(=O)C1CC1 (stereo partly shown) [Compound 15ah] | 0.1 to 5
CC[C@H]1C[C@@]1(NC(=O)C1C[C@@H]2CN1C(=O)[C@H](C(C)(C)C)NC(=O)OCCCC/C=C/COc1ccc3c(c1)CN(C3)C(=O)O2)C(=O)NS(=O)(=O)C1CC1 (stereo partly shown) [Compound 15bg] | 0.1 to 5
C=C[C@H]1C[C@@]1(NC(=O)C1C[C@@H]2CN1C(=O)[C@H](C(C)(C)C)NC(=O)OCC(C)(C)CC/C=C/COc1cccc3c1CN(C3)C(=O)O2)C(=O)NS(=O)(=O)C1CC1 (stereo partly shown) [Compound 15au] | 0.1 to 5
C=C[C@H]1C[C@@]1(NC(=O)C1C[C@@H]2CN1C(=O)[C@H](C(C)(C)C)NC(=O)OCC/C=C/COc1cccc3c1CN(C3)C(=O)O2)C(=O)NS(=O)(=O)C1CC1 (stereo partly shown) [Compound 15ad] | 0.1 to 5
CC[C@H]1C[C@@]1(NC(=O)C1C[C@@H]2CN1C(=O)[C@H](C(C)(C)C)NC(=O)OCC(C)(C)CC/C=C/COc1cccc3c1CN(C3)C(=O)O2)C(=O)NS(=O)(=O)C1CC1 (stereo partly shown) [Compound 15r] | 0.1 to 5
C=C[C@H]1C[C@@]1(NC(=O)C1C[C@@H]2CN1C(=O)[C@H](C(C)(C)C)NC(=O)OCC/C=C/COc1c(OC)ccc3c1CN(C3)C(=O)O2)C(=O)NS(=O)(=O)C1CC1 (stereo partly shown) [Compound 15n] | 0.1 to 5
C=C[C@H]1C[C@@]1(NC(=O)C1C[C@@H]2CN1C(=O)[C@H](C(C)(C)C)NC(=O)OCCCCCCCOc1ccc3c(c1)CN(C3)C(=O)O2)C(=O)NS(=O)(=O)C1CC1 (stereo partly shown) [Compound 15bf] | 0.1 to 5
CCC1CC1(NC(=O)C1CC2CN1C(=O)C(C(C)(C)C)NC(=O)OCC(C)(C)CCCCCOC(=O)c1ccc3c(c1)CN(C3)C(=O)O2)C(=O)NS(=O)(=O)C1CC1 (stereo not shown) [Compound 15bs] | 51 to 300
CC[C@H]1C[C@@]1(NC(=O)C1C[C@@H]2CN1C(=O)[C@H](C(C)(C)C)NC(=O)OCC(C)(C)CCCCNC(=O)c1cccc3c1CN(C3)C(=O)O2)C(=O)NS(=O)(=O)C1CC1 (stereo partly shown) [Compound 15bc] | 51 to 300
C=CC1CC1(NC(=O)C1CC2CN1C(=O)C(C(C)(C)C)NC(=O)OCC(C)(C)CCCCCOc1cccc3c1CN(C3)C(=O)O2)C(=O)NS(=O)(=O)C1CC1 (stereo not shown) [Compound 15at] | 0.1 to 5
CC[C@H]1C[C@@]1(NC(=O)C1C[C@@H]2CN1C(=O)[C@H](C(C)(C)C)NC(=O)OCC(C)(C)C/C=C/COc1cccc3c1CN(C3)C(=O)O2)C(=O)NS(=O)(=O)C1CC1 (stereo partly shown) [Compound 15ar] | 0.1 to 5
CC[C@H]1C[C@@]1(NC(=O)C1C[C@@H]2CN1C(=O)[C@H](C(C)(C)C)NC(=O)OCC(C)(C)CCCCOc1ccc(Cl)c3c1CN(C3)C(=O)O2)C(=O)NS(=O)(=O)C1CC1 (stereo partly shown) [Compound 15ax] | 0.1 to 5
CC[C@H]1C[C@@]1(NC(=O)C1C[C@@H]2CN1C(=O)[C@H](C(C)(C)C)NC(=O)OCC1(C/C=C/COc3cccc4c3CN(C4)C(=O)O2)CC1)C(=O)NS(=O)(=O)C1CC1 (stereo partly shown) [Compound 15f] | 0.1 to 5
CC[C@H]1C[C@@]1(NC(=O)C1C[C@@H]2CN1C(=O)[C@H](C(C)(C)C)NC(=O)OCCCCCOc1cccc3c1CN(C3)C(=O)O2)C(=O)NS(=O)(=O)C1CC1 (stereo partly shown) [Compound 15ag] | 0.1 to 5
CC[C@H]1C[C@@]1(NC(=O)C1C[C@@H]2CN1C(=O)[C@H](C(C)(C)C)NC(=O)OCC(C)(C)OCCCCOc1cccc3c1CN(C3)C(=O)O2)C(=O)NS(=O)(=O)C1CC1 (stereo partly shown) [Compound 15am] | 0.1 to 5
CC[C@H]1C[C@@]1(NC(=O)C1C[C@@H]2CN1C(=O)[C@H](C(C)(C)C)NC(=O)OCC/C=C/COc1cccc3c1CN(C3)C(=O)O2)C(=O)NS(=O)(=O)C1CC1 (stereo partly shown) [Compound 15ae] | 0.1 to 5
